One test deals with EphB4 (Homo sapiens (Human), UniProt P54760). Nature of the test: EphB4 kinase inhibition, 33P phosphoryl transfer assay (radiometric). The class given is biochemical. How it is done: Phosphorylated substrate products are quantified by scintillation spectrometry.
Kinase activity and compound inhibition are investigated using one or more of the three assay formats described below. The ATP concentrations are selected near its Michaelis-Menten constant (KM) for each individual kinase. Dose-response experiments are performed at ten different inhibitor concentrations in a 384-well plate format. […] These parameters are obtained by nonlinear regression algorithm built into ActivityBase software (available from ID Business Solutions Ltd., of Guildford, Surrey, UK). ^33P Phosphoryl Transfer Assay (Radiometric)
Greiner 384-well white clear bottom high binding plates (available from Greiner Bio-One, Inc., of Longwood, Fla.) are coated with 2 μg/well of protein or peptide substrate in a 50 μL volume overnight at ambient temperature. […] The coating solution is aspirated and the plates are washed once with 50 μL of assay buffer and padded dry. Subsequently compounds and enzymes are mixed with γ ^33P-ATP (3.3 μCi/nmol) in a total volume of 20 uL in suitable assay buffers (see Table 2). For example the final EphB4 reaction solution contains 20 mM TrisHCl, pH 7.5, 10 mM MgCl2, 0.01% Triton X-100, 0.1 mM NaVO3, 5 nM EphB4 enzyme and 5 μM ATP. […] The plates are subsequently washed 6-12 times with PBST or TBS buffer.

The target in a further test is EGFR (Homo sapiens (Human), UniProt P00533). Nature of the test: EGFR kinase inhibition, luciferase-coupled chemiluminescent assay (LCCA). The following applies: read-out: EGFR IC50.
Sequence of EGFR (P00533 672-1210): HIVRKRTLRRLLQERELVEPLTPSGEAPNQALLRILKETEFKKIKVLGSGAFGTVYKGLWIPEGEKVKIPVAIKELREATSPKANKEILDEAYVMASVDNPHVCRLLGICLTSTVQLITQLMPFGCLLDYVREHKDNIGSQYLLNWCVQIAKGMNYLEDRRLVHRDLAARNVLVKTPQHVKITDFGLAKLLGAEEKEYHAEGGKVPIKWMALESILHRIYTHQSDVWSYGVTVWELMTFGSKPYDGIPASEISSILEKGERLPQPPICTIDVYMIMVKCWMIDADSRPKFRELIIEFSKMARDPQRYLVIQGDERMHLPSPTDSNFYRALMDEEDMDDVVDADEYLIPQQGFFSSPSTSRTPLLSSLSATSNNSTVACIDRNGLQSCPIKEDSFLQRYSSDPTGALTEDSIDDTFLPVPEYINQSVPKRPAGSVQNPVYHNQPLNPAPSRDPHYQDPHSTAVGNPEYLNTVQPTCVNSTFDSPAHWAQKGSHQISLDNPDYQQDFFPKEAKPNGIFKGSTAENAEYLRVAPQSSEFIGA

Molecules are shown by their SMILES.

Sequence of EphB4 (P54760 605-890): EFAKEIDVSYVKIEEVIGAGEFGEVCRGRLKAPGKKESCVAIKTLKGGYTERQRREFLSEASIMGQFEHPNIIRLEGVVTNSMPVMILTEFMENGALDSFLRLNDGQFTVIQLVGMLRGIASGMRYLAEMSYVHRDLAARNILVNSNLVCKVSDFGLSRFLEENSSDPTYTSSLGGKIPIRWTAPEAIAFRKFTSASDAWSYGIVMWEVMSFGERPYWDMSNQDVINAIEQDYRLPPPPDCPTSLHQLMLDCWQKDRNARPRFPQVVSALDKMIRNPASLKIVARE

A word on the IC50: it is the point on the concentration scale where inhibition reaches its midpoint. On to `COc1cc2c(Nc3cc(Cl)c(Cl)cc3F)ncnc2cc1O[C@@H]1CO[C@@H]2[C@H]1OC[C@H]2F` [Example 105, 1,4:3,6-dianhydro-2-deoxy-5-O-[4-[(4,5-dichloro-2-fluorophenyl)amino]-6-(methyloxy)quinazolin-7-yl]-2-fluoro-D-iditol], for which the IC50 at EphB4 and at EGFR was below 0.05 µM each time.
For the compound `COc1cc2c(Nc3ccc(Cl)c(Cl)c3)ncnc2cc1OCc1c(F)cccc1F` [Example 233, N-(3,4-dichlorophenyl)-7-{[(2,6-difluorophenyl)methyl]oxy}-6-(methyloxy)quinazolin-4-amine], the IC50 on EphB4 and on EGFR was below 0.05 µM throughout.
As for `COc1cc2c(Nc3cccc(Cl)c3)ncnc2cc1O[C@@H]1CO[C@@H]2[C@H]1OC[C@H]2F` [Example 114, 1,4:3,6-dianhydro-5-O-[4-[(3-chlorophenyl)amino]-6-(methyloxy)quinazolin-7-yl]-2-deoxy-2-fluoro-D-iditol], the 50% inhibitory concentration (IC50) against EphB4 and at EGFR was below 0.05 µM throughout.
For `CCCN1CCCOC(COc2cc3ncnc(Nc4ccc(Cl)c(Cl)c4)c3cc2OC)C1` (stereo not drawn) [Example 258, N-(3,4-dichlorophenyl)-6-(methyloxy)-7-{[(4-propyl-1,4-oxazepan-2-yl)methyl]oxy}quinazolin-4-amine], the IC50 at EphB4 was 0.05 to 1 µM; at EGFR, below 0.05 µM.
For `COc1cc2c(Nc3ccc(Cl)c(Cl)c3)ncnc2cc1OCC1CN(CC2CC2)CCCO1` (stereo not drawn) [Example 259, 7-({[4-(cyclopropylmethyl)-1,4-oxazepan-2-yl]methyl}oxy)-N-(3,4-dichlorophenyl)-6-(methyloxy)quinazolin-4-amine] the same measures were 0.05 to 1 µM and below 0.05 µM.
The corresponding values for `COc1cc2c(Nc3ccc(Cl)c(Cl)c3)ncnc2cc1OCC1CN(Cc2ccccc2)CCO1` (stereo not drawn) [Example 147, N-(3,4-dichlorophenyl)-6-(methyloxy)-7-({[4-(phenylmethyl)morpholin-2-yl]methyl}oxy)quinazolin-4-amine] are 0.05 to 1 µM and below 0.05 µM.
Regarding `COc1cc2c(Nc3ccc(Cl)c(C(F)(F)F)c3)ncnc2cc1O[C@@H]1CO[C@@H]2[C@H]1OC[C@H]2F` [Example 121, 1,4:3,6-dianhydro-5-O-[4-{[4-chloro-3-(trifluoromethyl)phenyl]amino}-6-(methyloxy)quinazolin-7-yl]-2-deoxy-2-fluoro-D-iditol], the half-maximal inhibitory concentration (IC50) on EGFR is below 0.05 µM.
Regarding `COc1cc2c(Nc3ccc(F)cc3Br)ncnc2cc1O[C@@H]1CO[C@@H]2[C@H]1OC[C@H]2F` [Example 86, 1,4:3,6-dianhydro-5-O-[4-[(2-bromo-4-fluorophenyl)amino]-6-(methyloxy)quinazolin-7-yl]-2-deoxy-2-fluoro-D-iditol], the IC50 on EGFR is below 0.05 µM.
On the same count and under the same terms, as for `COc1cc2c(Nc3ccc(F)c(F)c3)ncnc2cc1O[C@@H]1CO[C@@H]2[C@H]1OC[C@H]2F` [Example 111, 1,4:3,6-dianhydro-2-deoxy-5-O-[4-[(3,4-difluorophenyl)amino]-6-(methyloxy)quinazolin-7-yl]-2-fluoro-D-iditol], the figure is below 0.05 µM; as for `COc1cc2c(Nc3ccc(Cl)c(Cl)c3)ncnc2cc1OCc1nc(-c2ccc(Cl)cc2)no1` [Example 168, 7-({[3-(4-chlorophenyl)-1,2,4-oxadiazol-5-yl]methyl}oxy)-N-(3,4-dichlorophenyl)-6-(methyloxy)quinazolin-4-amine], below 0.05 µM; as for `COc1cc2c(Nc3ccc(Cl)c(Cl)c3)ncnc2cc1OCc1c(C)cc(C)cc1C` [Example 178, N-(3,4-dichlorophenyl)-6-(methyloxy)-7-{[(2,4,6-trimethylphenyl)methyl]oxy}quinazolin-4-amine], below 0.05 µM.
For the compound `COc1cc2c(Nc3cccc(Cl)c3F)ncnc2cc1O[C@@H]1CO[C@@H]2[C@H]1OC[C@H]2F` [Example 88, 1,4:3,6-dianhydro-5-O-[4-[(3-chloro-2-fluorophenyl)amino]-6-(methyloxy)quinazolin-7-yl]-2-deoxy-2-fluoro-D-iditol], the IC50 at EGFR was below 0.05 µM.
On the same count and under the same terms, as for `COc1cc2c(Nc3ccc(F)cc3C(F)(F)F)ncnc2cc1O[C@@H]1CO[C@@H]2[C@H]1OC[C@H]2F` [Example 126, 1,4:3,6-dianhydro-2-deoxy-2-fluoro-5-O-[4-{[4-fluoro-2-(trifluoromethyl)phenyl]amino}-6-(methyloxy)quinazolin-7-yl]-D-iditol], the figure is below 0.05 µM.
Turning to `CCN1CCC[C@H]1c1nc(COc2cc3ncnc(Nc4ccc(Cl)c(Cl)c4)c3cc2OC)cs1` [Example 256, N-(3,4-dichlorophenyl)-7-[({2-[(2S)-1-ethylpyrrolidin-2-yl]-1,3-thiazol-4-yl}methyl)oxy]-6-(methyloxy)quinazolin-4-amine], the half-maximal inhibitory concentration (IC50) on EGFR is below 0.05 µM.
Still for that read-out and setting: as for `COc1cc2c(Nc3ccc(Cl)c(Cl)c3)ncnc2cc1OCc1c(OC)ccc2cc(Br)ccc12` [Example 169, 7-({[6-bromo-2-(methyloxy)naphthalen-1-yl]methyl}oxy)-N-(3,4-dichlorophenyl)-6-(methyloxy)quinazolin-4-amine], the figure is below 0.05 µM; as for `COc1cc2c(Nc3cccc(Cl)c3C)ncnc2cc1O[C@@H]1CO[C@@H]2[C@H]1OC[C@H]2F` [Example 110, 1,4:3,6-dianhydro-5-O-[4-[(3-chloro-2-methylphenyl)amino]-6-(methyloxy)quinazolin-7-yl]-2-deoxy-2-fluoro-D-iditol], below 0.05 µM; as for `COc1cc(Nc2ncnc3cc(O[C@@H]4CO[C@@H]5[C@H]4OC[C@H]5F)c(OC)cc23)c(OC)cc1Cl` [Example 136, 1,4:3,6-dianhydro-5-O-[4-{[4-chloro-2,5-bis(methyloxy)phenyl]amino}-6-(methyloxy)quinazolin-7-yl]-2-deoxy-2-fluoro-D-iditol], below 0.05 µM.
On the same count and under the same terms, to `COc1cc2c(Nc3ccc(Br)c(Cl)c3F)ncnc2cc1O[C@@H]1CO[C@@H]2[C@H]1OC[C@H]2F` [Example 102, 1,4:3,6-dianhydro-5-O-[4-[(4-bromo-3-chloro-2-fluorophenyl)amino]-6-(methyloxy)quinazolin-7-yl]-2-deoxy-2-fluoro-D-iditol] belongs below 0.05 µM.
Turning to `COc1cc2c(Nc3ccc(Cl)c(Cl)c3)ncnc2cc1OCc1cc(-c2ccccc2)no1` [Example 177, N-(3,4-dichlorophenyl)-6-(methyloxy)-7-{[(3-phenylisoxazol-5-yl)methyl]oxy}quinazolin-4-amine], the IC50 at EGFR was below 0.05 µM.
On the same count and under the same terms, to `COc1cc2c(Nc3cc(C)cc(C)c3)ncnc2cc1O[C@@H]1CO[C@@H]2[C@H]1OC[C@H]2F` [Example 133, 1,4:3,6-dianhydro-2-deoxy-5-O-[4-[(3,5-dimethylphenyl)amino]-6-(methyloxy)quinazolin-7-yl]-2-fluoro-D-iditol] belongs below 0.05 µM.
As for `COc1cc2c(Nc3ccc(F)cc3Cl)ncnc2cc1O[C@@H]1CO[C@@H]2[C@H]1OC[C@H]2F` [Example 85, 1,4:3,6-dianhydro-5-O-[4-[(2-chloro4-fluorophenyl)amino]-6-(methyloxy)quinazolin-7-yl]-2-deoxy-2-fluoro-D-iditol], on EGFR, the half-inhibitory concentration (IC50) is below 0.05 µM.

For the origin of these results see US9796704B2, “Substituted quinazolines as receptor-type kinase inhibitors” (Symphony Evolution, Inc., priority 2002, dated 2017).
